Data from patent US20110158980A1, “METHODS TO TREAT AND SCREEN FOR AGENTS TO TREAT OBESITY” (TRUSTEES OF TUFTS COLLEGE, priority 2008, published 2011).

Columns and labels:
3T3-L1 adipocytes [1] = experiment: Metabolic flux analysis (stoichiometric model) of adipocyte intermediary metabolism; assay type: cell-based; conditions: day 12 post-induction
Method: (§1) 3T3-L1 preadipocytes were plated onto 24-well plates and expanded in preadipocyte growth medium consisting of DMEM supplemented with calf serum (10% v/v), penicillin and streptomycin. Medium was replenished every other day. Two days post-confluence, the cells were induced to differentiate using an adipogenic cocktail (1 μg/ml insulin, 0.5 mM isobutylmethylxanthine, and 1 μM dexamethasone) added to a basal medium (DMEM with 10% fetal bovine serum and penicillin/streptomycin). After 48 hrs, the first medium was replaced with a second induction medium consisting of the basal adipocyte medium supplemented with only insulin. […] This basal medium was replenished every other day during the remainder of the culture experiments.
A stoichiometric model of adipocyte central carbon metabolism was constructed as described previously (Si Y, Yoon J, Lee K. American journal of physiology 2007; 292:E1637-46). The model consisted of the major pathways of central carbon metabolism (Table 1). Intracellular fluxes were estimated by solving a constrained non-linear optimization problem with stoichiometric and thermodynamic constraints (Nolan R P, Fenley A P, Lee K. Metab Eng 2006; 8:30-45).

3T3-L1 adipocytes [2] = experiment: Metabolite assays (TG, FFA, glucose, lactate, glycerol) on cell lysates and spent medium; assay type: cell-based; conditions: 20 mM oxamate, day 12 post-induction
Method: as §1
Metabolite measurements were performed both on cell lysates and spent medium samples as described previously (Si Y, Yoon J, Lee K. American journal of physiology 2007; 292:E1637-46). Cells were lysed in situ with an 0.1% SDS buffer and sonicated. Immediately after collection, the spent medium samples were cleaned of cell debris by a brief centrifugation step. Free glycerol, TG and free fatty acids (FFAs) were measured using enzymatic assay kits (SIGMA™). Glucose and lactate concentrations were measured using the methods of Trinder (Trinder P. J Clin Pathol 1969; 22:158-61) and Loomis (Loomis M E. J Lab Clin Med 1961; 57:966-9), respectively. Amino acids were quantified by HPLC using fluorescence-based detection following pre-column derivatization of primary or secondary amines with 6-aminoquinolyl-N-hydroxysuccinimidyl-carbamate (Cohen S A, De Antonis K M. J Chromatogr A 1994; 661:25-34). All metabolite data were normalized by the corresponding cell sample DNA content, which was determined with a fluorescence-based assay using the Hoechst dye.

With `NC(=O)C(=O)O` [oxamate] the “Flux RXN 31 Amino acid metabolism: Pyruvate + NH4+ + NADPH = Alanine” value (3T3-L1 adipocytes [1]; OXA 20 mM) was 0.0 ± 0.0 mmol/g-DNA/2 days, the “Flux RXN 32 Amino acid metabolism: Aspartate + NH4+ = Asparagine” value (3T3-L1 adipocytes [1]; OXA 20 mM) was 0.6 ± 0.1 mmol/g-DNA/2 days and the “Flux RXN 33 Amino acid metabolism: Aspartate = Oxaloacetate + NH4+ + NADH” value (3T3-L1 adipocytes [1]; OXA 20 mM) was 0.0 ± 0.0 mmol/g-DNA/2 days. The “Flux RXN 34 Amino acid metabolism: Cysteine = Pyruvate + NH4+ + NADH” value (3T3-L1 adipocytes [1]; OXA 20 mM) was 0.0 ± 0.0 mmol/g-DNA/2 days, the “Flux RXN 35 Amino acid metabolism: Glutamate = 2-Oxoglutarate + NH4+ + NADH” value (3T3-L1 adipocytes [1]; OXA 20 mM) was 0.0 ± 0.0 mmol/g-DNA/2 days and the “Flux RXN 36 Amino acid metabolism: Glutamate + NH4+ + ATP = Glutamine” value (3T3-L1 adipocytes [1]; OXA 20 mM) was 8.0 ± 1.0 mmol/g-DNA/2 days. The “Flux RXN 37 Amino acid metabolism: Serine + THF = Glycine” value (3T3-L1 adipocytes [1]; OXA 20 mM) was 5.0 ± 0.3 mmol/g-DNA/2 days, the “Flux RXN 38 Amino acid metabolism: Histidine + THF = Glutamate + NH4+” value (3T3-L1 adipocytes [1]; OXA 20 mM) was 4.1 ± 0.5 mmol/g-DNA/2 days and the “Flux RXN 39 Amino acid metabolism: Isoleucine + 2 CoA” value (3T3-L1 adipocytes [1]; OXA 20 mM) was 6.1 ± 0.3 mmol/g-DNA/2 days. The “Flux RXN 40 Amino acid metabolism: Leucine + CoA + CO2 + ATP” value (3T3-L1 adipocytes [1]; OXA 20 mM) was 6.8 ± 0.3 mmol/g-DNA/2 days, the “Flux RXN 41 Amino acid metabolism: Lysine = 2-Oxoadipate + 2 NH4+ + 3 NADH” value (3T3-L1 adipocytes [1]; OXA 20 mM) was 0.0 ± 0.0 mmol/g-DNA/2 days and the “Flux RXN 42 Amino acid metabolism: 2-Oxoadipate + CoA” value (3T3-L1 adipocytes [1]; OXA 20 mM) was 0.0 ± 0.0 mmol/g-DNA/2 days. The “Flux RXN 43 Amino acid metabolism: Methionine + Serine + ATP + CoA + THF” value (3T3-L1 adipocytes [1]; OXA 20 mM) was 0.0 ± 0.0 mmol/g-DNA/2 days, the “Flux RXN 44 Amino acid metabolism: Phenylalanine + O2 + NADH = Tyrosine” value (3T3-L1 adipocytes [1]; OXA 20 mM) was 0.0 ± 0.0 mmol/g-DNA/2 days and the “Flux RXN 45 Amino acid metabolism: Glutamate + ATP + 2 NADPH = Proline” value (3T3-L1 adipocytes [1]; OXA 20 mM) was 0.0 ± 0.0 mmol/g-DNA/2 days. The “Flux RXN 46 Amino acid metabolism: Serine = Pyruvate + NH4+” value (3T3-L1 adipocytes [1]; OXA 20 mM) was 0.0 ± 0.0 mmol/g-DNA/2 days, the “Flux RXN 47 Amino acid metabolism: Threonine + CoA to Glycine” value (3T3-L1 adipocytes [1]; OXA 20 mM) was 0.0 ± 0.0 mmol/g-DNA/2 days and the “Flux RXN 48 Amino acid metabolism: Tryptophan + 3 O2 + NADPH = 2-Oxoadipate + Alanine + CO2 + NH4+” value (3T3-L1 adipocytes [1]; OXA 20 mM) was 0.0 ± 0.0 mmol/g-DNA/2 days. The “Flux RXN 49 Amino acid metabolism: Tyrosine + 2 O2” value (3T3-L1 adipocytes [1]; OXA 20 mM) was 0.0 ± 0.0 mmol/g-DNA/2 days, the “Flux RXN 50 Amino acid metabolism: Valine + CoA” value (3T3-L1 adipocytes [1]; OXA 20 mM) was 3.3 ± 0.2 mmol/g-DNA/2 days and the “Flux RXN 51 Plasma exchange: Palmitate” value (3T3-L1 adipocytes [1]; OXA 20 mM) was 1.0 ± 0.1 mmol/g-DNA/2 days. The “Flux RXN 52 Plasma exchange: Acetoacetate” value (3T3-L1 adipocytes [1]; OXA 20 mM) was 2.4 ± 1.9 mmol/g-DNA/2 days, the “Flux RXN 53 Plasma exchange: Alanine” value (3T3-L1 adipocytes [1]; OXA 20 mM) was 0.0 ± 0.0 mmol/g-DNA/2 days and the “Flux RXN 54 Plasma exchange: Aspartate” value (3T3-L1 adipocytes [1]; OXA 20 mM) was 0.6 ± 0.1 mmol/g-DNA/2 days. For the same molecule, the “Flux RXN 55 Plasma exchange: Cysteine” value (3T3-L1 adipocytes [1]; OXA 20 mM) was 0.0 ± 0.0 mmol/g-DNA/2 days, the “Flux RXN 56 Plasma exchange: Glutamate” value (3T3-L1 adipocytes [1]; OXA 20 mM) was 3.9 ± 0.5 mmol/g-DNA/2 days and the “Flux RXN 57 Plasma exchange: Glycine” value (3T3-L1 adipocytes [1]; OXA 20 mM) was 5.0 ± 0.3 mmol/g-DNA/2 days. The “Flux RXN 58 Plasma exchange: Serine” value (3T3-L1 adipocytes [1]; OXA 20 mM) was 5.0 ± 0.3 mmol/g-DNA/2 days, the “Flux RXN 59 Plasma exchange: Tyrosine” value (3T3-L1 adipocytes [1]; OXA 20 mM) was 0.0 ± 0.0 mmol/g-DNA/2 days and the “Flux RXN 60 Plasma exchange: O2 (calculated oxygen uptake rate)” value (3T3-L1 adipocytes [1]; OXA 20 mM) was 511.3 ± 67.1 mmol/g-DNA/2 days. The “Flux RXN 61 Plasma exchange: CO2” value (3T3-L1 adipocytes [1]; OXA 20 mM) was 756.9 ± 75.2 mmol/g-DNA/2 days, the “Flux RXN 62 Plasma exchange: NH4+” value (3T3-L1 adipocytes [1]; OXA 20 mM) was 11.7 ± 0.5 mmol/g-DNA/2 days and the “Flux RXN 63 Mitochondrial exchange: Pyruvate” value (3T3-L1 adipocytes [1]; OXA 20 mM) was 399.5 ± 40.8 mmol/g-DNA/2 days. The “Flux RXN 64 Mitochondrial exchange: Malate in, Citrate out” value (3T3-L1 adipocytes [1]; OXA 20 mM) was 105.3 ± 13.9 mmol/g-DNA/2 days, the “Flux RXN 65 Mitochondrial exchange: 2-Oxoglutarate in, Malate out” value (3T3-L1 adipocytes [1]; OXA 20 mM) was 41.6 ± 9.1 mmol/g-DNA/2 days and the “Flux RXN 66 Mitochondrial exchange: Pi in, Malate out” value (3T3-L1 adipocytes [1]; OXA 20 mM) was 54.8 ± 20.5 mmol/g-DNA/2 days. The “Decrease of PC flux” value (3T3-L1 adipocytes [1]; oxamate) was 41%, the “Decrease of citrate transport out of the mitochondria” value (3T3-L1 adipocytes [1]; oxamate) was 44% and the “Decrease of de novo fatty acid synthesis” value (3T3-L1 adipocytes [1]; oxamate) was 49%. For the same molecule, the “Decrease of flux through glycolysis” value (3T3-L1 adipocytes [1]; oxamate) was 17˜26%, the “Decrease of flux through the pentose phosphate pathway (PPP)” value (3T3-L1 adipocytes [1]; oxamate) was 82% and the “Decrease of pyruvate flux entering the TCA cycle” value (3T3-L1 adipocytes [1]; oxamate) was 21%. For the same molecule, the Increase of lipolysis (3T3-L1 adipocytes [1]; oxamate) was 131%, the “Increase of triglyceride synthesis” value (3T3-L1 adipocytes [1]; oxamate) was 65% and the “Reduction of net triglyceride accumulation” value (3T3-L1 adipocytes [1]; oxamate) was 52%. For the same molecule, the Glycerol output raised (3T3-L1 adipocytes [2]) was 1.3 fold, the “Reduction of glucose uptake” value (3T3-L1 adipocytes [2]) was 20% and the inhibition at 20000 µM (3T3-L1 adipocytes [2]; Mus musculus, 3T3-L1, vs untreated control, read-out: Inhibition of lactate output) was 40%.
